Test results taken from US20260356809A1 (The United States of America, as represented by the …, priority 2022, published 2026).
Read-outs that look alike come from different tables or passages of the source.

Legend:
[1] = biological target: T1, D2LR (Homo sapiens, UniProt P14416); type: cell-based; details: GPA GαoA assay
T1 construct: expressed in transfected cells; host or cells: HEK 293T, transient

[2] = biological target: T1, D2LR; type: cell-based; details: miniG recruitment assay
[3] = biological target: T2, 5-HT1A (Homo sapiens, UniProt P08908); experiment: 5-HT1A [35S]GTPγS, agonist; type: biochemical
T2 sequence (P08908 1-422): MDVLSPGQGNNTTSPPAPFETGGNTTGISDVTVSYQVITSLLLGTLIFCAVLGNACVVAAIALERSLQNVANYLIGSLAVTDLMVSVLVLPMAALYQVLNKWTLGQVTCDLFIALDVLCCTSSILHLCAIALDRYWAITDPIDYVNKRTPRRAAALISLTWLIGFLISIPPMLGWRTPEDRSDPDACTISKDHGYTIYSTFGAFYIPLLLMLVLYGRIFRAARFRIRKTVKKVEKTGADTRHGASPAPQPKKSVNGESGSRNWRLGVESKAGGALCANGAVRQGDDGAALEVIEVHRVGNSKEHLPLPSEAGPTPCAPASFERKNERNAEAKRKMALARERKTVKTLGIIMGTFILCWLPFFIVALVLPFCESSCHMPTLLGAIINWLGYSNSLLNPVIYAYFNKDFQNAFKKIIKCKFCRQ

[4] = biological target: T3, 5-HT2C (Homo sapiens, UniProt P28335); experiment: 5-HT2C IP-1, agonist; type: cell-based
T3 sequence (P28335 33-458): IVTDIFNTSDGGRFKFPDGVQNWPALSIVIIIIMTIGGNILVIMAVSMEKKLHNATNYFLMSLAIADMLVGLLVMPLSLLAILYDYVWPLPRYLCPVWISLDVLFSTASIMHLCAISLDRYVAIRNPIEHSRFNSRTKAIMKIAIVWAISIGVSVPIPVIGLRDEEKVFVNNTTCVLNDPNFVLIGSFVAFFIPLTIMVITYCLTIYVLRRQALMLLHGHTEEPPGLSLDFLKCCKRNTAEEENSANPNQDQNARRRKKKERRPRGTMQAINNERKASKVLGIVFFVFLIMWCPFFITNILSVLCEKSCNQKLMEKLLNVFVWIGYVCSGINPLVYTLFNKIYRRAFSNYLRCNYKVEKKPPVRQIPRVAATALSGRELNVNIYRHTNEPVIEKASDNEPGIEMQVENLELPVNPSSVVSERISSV

[5] = biological target: T3, 5-HT2C; experiment: 5-HT2C IP-1, antagonist; type: cell-based
[6] = system: cocaine self-administration in rats; experiment: cocaine self-administration under progressive ratio (PR) break-point; type: in vivo, Long-Evans rats; details: i.p. 30 min prior
[7] = biological target: T4, 5-HT2A (Homo sapiens, UniProt P28223); experiment: 5-HT2A IP-1, agonist; type: cell-based; details: agonist mode
T4 sequence (P28223 whole entry, species assumed): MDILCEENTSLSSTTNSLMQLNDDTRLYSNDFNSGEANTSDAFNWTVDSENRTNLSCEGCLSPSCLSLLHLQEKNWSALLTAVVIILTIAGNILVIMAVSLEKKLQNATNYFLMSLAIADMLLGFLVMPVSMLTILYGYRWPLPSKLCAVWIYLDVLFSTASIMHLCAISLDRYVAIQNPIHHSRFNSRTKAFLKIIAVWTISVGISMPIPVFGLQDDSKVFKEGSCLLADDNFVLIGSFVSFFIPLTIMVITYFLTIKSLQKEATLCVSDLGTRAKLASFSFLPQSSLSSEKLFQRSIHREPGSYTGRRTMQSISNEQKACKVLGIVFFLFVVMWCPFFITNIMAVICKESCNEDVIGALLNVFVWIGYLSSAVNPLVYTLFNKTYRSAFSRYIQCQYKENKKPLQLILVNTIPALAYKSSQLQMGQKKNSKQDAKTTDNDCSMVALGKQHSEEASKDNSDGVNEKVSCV

[8] = biological target: T5, 5-HT2B (Homo sapiens, UniProt P41595); experiment: 5-HT2B IP-1, agonist; type: cell-based; details: agonist mode
T5 sequence (P41595 whole entry, species assumed): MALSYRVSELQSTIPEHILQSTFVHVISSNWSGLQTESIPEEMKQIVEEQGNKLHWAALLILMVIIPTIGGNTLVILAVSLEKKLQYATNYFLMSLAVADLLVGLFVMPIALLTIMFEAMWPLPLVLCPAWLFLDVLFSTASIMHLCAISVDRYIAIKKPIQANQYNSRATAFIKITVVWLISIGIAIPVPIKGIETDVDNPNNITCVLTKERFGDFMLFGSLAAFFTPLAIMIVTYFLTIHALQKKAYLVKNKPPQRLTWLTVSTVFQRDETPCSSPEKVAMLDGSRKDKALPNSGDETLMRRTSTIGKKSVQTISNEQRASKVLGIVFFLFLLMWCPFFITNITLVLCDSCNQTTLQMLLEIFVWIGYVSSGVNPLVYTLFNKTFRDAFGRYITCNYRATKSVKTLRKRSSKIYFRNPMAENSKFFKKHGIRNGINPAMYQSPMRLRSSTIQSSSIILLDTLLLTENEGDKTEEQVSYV

[9] = biological target: T4, 5-HT2A; type: cell-based; details: antagonist mode
[10] = biological target: T5, 5-HT2B; experiment: 5-HT2B IP-1, antagonist; type: cell-based; details: for 5-HT2B IP-1 Emax ± SEM: antagonist mode
[11] = biological target: T6, D4R (Homo sapiens, UniProt P21917); experiment: D4R off-target binding, [3H]-spiperone; details: read-out: D4R Ki ± SEM
T6 sequence (P21917 1-419): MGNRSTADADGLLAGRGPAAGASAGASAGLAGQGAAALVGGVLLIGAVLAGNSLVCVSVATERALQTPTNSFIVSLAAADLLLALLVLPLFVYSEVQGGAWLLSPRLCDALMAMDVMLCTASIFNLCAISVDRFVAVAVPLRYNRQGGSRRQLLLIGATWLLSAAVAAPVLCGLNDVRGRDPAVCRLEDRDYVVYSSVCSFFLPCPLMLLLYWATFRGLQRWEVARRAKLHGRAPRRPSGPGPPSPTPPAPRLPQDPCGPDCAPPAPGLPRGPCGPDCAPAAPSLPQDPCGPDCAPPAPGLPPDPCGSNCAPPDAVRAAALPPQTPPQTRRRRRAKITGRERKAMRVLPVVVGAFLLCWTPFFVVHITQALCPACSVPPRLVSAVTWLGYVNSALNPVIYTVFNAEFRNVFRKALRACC

[12] = biological target: T2, 5-HT1A; experiment: 5-HT1A off-target binding, [3H]-8-OH-DPAT; details: read-out: 5-HT1A Ki ± SEM
[13] = biological target: T5, 5-HT2B; experiment: 5-HT2B off-target binding, [3H]5-HT; details: read-out: 5-HT2B Ki ± SEM

T1 sequence (P14416 whole entry): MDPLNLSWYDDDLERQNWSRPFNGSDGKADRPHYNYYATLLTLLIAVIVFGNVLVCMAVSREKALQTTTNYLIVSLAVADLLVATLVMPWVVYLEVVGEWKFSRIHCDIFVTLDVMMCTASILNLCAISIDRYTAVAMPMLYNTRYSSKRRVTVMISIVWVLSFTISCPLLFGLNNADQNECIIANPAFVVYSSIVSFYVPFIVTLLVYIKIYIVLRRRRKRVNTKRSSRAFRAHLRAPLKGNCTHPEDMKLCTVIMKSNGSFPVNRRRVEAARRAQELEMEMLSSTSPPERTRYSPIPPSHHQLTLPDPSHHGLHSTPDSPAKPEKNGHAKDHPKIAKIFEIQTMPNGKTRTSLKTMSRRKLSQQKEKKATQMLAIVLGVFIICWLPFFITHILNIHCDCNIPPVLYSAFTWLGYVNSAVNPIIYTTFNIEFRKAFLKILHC

| SMILES | D2R activity in words, GPA assay [1] | D2R activity in words, miniG assay [2] | 5-HT1A [35S]GTPγS Emax ± SEM ([3]; agonist mode) [%] | 5-HT2C IP-1 Emax ± SEM ([4]; agonist mode) [%] | EC50 ([4]; agonist mode, read-out: 5-HT2C IP-1 EC50 ± SEM) [µM] | IC50 [5] [µM] | 5-HT2C IP-1 Emax ± SEM ([5]; antagonist mode) [%] | effect on lever pressing / PR break-point for cocaine [6] | 5-HT2A IP-1 Emax ± SEM [7] [%] | 5-HT2B IP-1 Emax ± SEM [8] [%] | EC50 [4] [µM] | 5-HT2A IP-1 Emax ± SEM [9] [%] | 5-HT2B IP-1 Emax ± SEM [10] [%] | Ki [11] [µM] | Ki [12] [µM] | Ki [13] [µM] | EC50 [3] [µM] | EC50 ([8]; read-out: 5-HT2B IP-1 EC50 ± SEM) [µM] | IC50 [10] [µM] |
| --- | --- | --- | --- | --- | --- | --- | --- | --- | --- | --- | --- | --- | --- | --- | --- | --- | --- | --- | --- |
| CN(C)C(=O)N[C@H]1CC[C@H](CCN2CCN(c3cccc(Cl)c3Cl)CC2)CC1 [Compound 6a, 3-(trans-4-(2-(4-(2,3-Dichlorophenyl)piperazin-1-yl)ethyl)cyclohexyl)-1,1-dimethylurea] | maximal effect similar to quinpirole | D2R partial agonists | 89.6 ± 3.6 | 49.2 ± 6.6 | 0.215 ± 0.022 | > 5 | 9.2 ± 2.7 | reduce the reinforcing efficacy of cocaine | – | – | – | – | – | – | – | – | – | – | – |
| CCc1cccc(N2CCN(CC[C@H]3CC[C@H](NC(=O)CCOC)CC3)CC2)c1Cl [Compound 13b, N-(trans-4-(2-(4-(2-Chloro-3-ethylphenyl)piperazin-1-yl)ethyl)cyclohexyl)-3-methoxypropanamide] | – | – | – | – | – | – | – | – | 25.9 ± 1.9 | <1 | 0.0435 ± 0.0053 | 62.7 ± 5.8 | 100 ± 0 | – | – | – | – | – | – |
| COCCC(=O)N[C@H]1CC[C@H](CCN2CCN(c3cccc(OC)c3F)CC2)CC1 [Compound 13c, N-(trans-4-(2-(4-(2-Fluoro-3-methoxyphenyl)piperazin-1-yl)ethyl)cyclohexyl)-3-methoxypropanamide] | full agonists | full agonists | – | – | – | – | – | – | – | <1 | – | – | 82 ± 18 | 0.734 ± 0.016 | 0.0699 ± 0.0017 | 0.0296 ± 0.0095 | 0.121 ± 0.01 | > 10 | 0.519 ± 0.081 |
